Reference: patent US11684606B2, “Methods of treating generalized pustular psoriasis with an antagonist of CCR6 or CXCR2” (CHEMOCENTRYX, INC., priority 2018, dated 2023)

Experiments:
mCCR1 = target: T1, mCCR1 (Mus musculus, UniProt P51675); assay: Chemotaxis of mouse WEHI-274.1 cells to mCCL3; assay type: cell-based; settings: in serum; unit inferred
T1 construct: endogenous in cells; host or cells: mouse WEHI-274.1 cells (from the earlier reading's assay name)
T1 sequence (P51675 1-355): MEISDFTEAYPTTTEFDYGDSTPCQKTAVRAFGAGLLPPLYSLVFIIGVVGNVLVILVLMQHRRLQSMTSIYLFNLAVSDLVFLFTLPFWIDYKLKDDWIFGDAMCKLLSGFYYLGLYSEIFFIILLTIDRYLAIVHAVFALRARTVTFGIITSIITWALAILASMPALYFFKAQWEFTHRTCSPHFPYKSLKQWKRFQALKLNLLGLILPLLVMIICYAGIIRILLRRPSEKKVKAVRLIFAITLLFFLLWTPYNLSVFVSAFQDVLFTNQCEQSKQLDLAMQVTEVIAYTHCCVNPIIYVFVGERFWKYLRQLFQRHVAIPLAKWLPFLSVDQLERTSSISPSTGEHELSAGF

mCCR5 = target: T2, mCCR5 (Mus musculus, UniProt P51682); assay: Chemotaxis of mCCR5-transfected BaF3 cells to mCCL5; assay type: cell-based; settings: in serum; unit inferred
T2 construct: expressed in transfected cells; host or cells: BaF3 cells (from the earlier reading's assay name)
T2 sequence (P51682 whole entry): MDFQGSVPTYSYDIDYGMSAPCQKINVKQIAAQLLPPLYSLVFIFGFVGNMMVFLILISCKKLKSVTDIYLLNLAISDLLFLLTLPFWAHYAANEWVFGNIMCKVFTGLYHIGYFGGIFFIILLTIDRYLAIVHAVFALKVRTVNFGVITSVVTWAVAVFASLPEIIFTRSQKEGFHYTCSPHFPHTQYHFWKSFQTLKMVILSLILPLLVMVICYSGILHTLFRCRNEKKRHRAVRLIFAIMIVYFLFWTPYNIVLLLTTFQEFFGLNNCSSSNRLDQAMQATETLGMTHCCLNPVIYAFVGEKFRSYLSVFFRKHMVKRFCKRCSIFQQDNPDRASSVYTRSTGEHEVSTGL

IC50 (mCCR1): > 10 µM
IC50 (mCCR5): > 10 µM
Compound: CCC(C)(C)[C@@H](Nc1c(Nc2c(F)ccc3c2C(=O)N[C@H]3C)c(=O)c1=O)c1ccc(C)o1 [Compound 1.136]
